From publication PMC5218480 (PLoS ONE, 2017)

Tested on: MV-4-11 cells
Test: Gene expression microarray analysis (Affymetrix PrimeView) and GSEA
Format: cell-based, human
Parameters: RFU PODN (11730768_x_at) / Fold change /veh PODN (11730768_x_at) / RFU LINC00158 (11744669_a_at) / Fold change /veh LINC00158 (11744669_a_at) / RFU DUSP10 (11751237_a_at) / Fold change /veh DUSP10 (11751237_a_at) / RFU ID3 (11757404_x_at) / Fold change /veh ID3 (11757404_x_at) / RFU PLEKHG5 (11737974_s_at) / Fold change /veh PLEKHG5 (11737974_s_at) / RFU LRRC4B (11730491_at) / Fold change /veh LRRC4B (11730491_at) / RFU GIMAP4 (11747438_a_at) / Fold change /veh GIMAP4 (11747438_a_at) / RFU KRT8 (11758183_x_at) / Fold change /veh KRT8 (11758183_x_at) / RFU CNN1 (11734310_a_at) / Fold change /veh CNN1 (11734310_a_at) / RFU VPS37D (11726825_at) / Fold change /veh VPS37D (11726825_at) / RFU C10orf10 (11716522_x_at) / Fold change /veh C10orf10 (11716522_x_at) / RFU KIR2DL2 /// KIR2DL4 /// KIR2DL5A /// KIR2DL5B /// KIR2DS1 /// KIR2DS2 /// KIR2DS3 /// KIR2DS4 /// KIR3DL3 /// KIR3DL3 /// KIR3DS1 (11738374_at) / Fold change /veh KIR2DL2 /// KIR2DL4 /// KIR2DL5A /// KIR2DL5B /// KIR2DS1 /// KIR2DS2 /// KIR2DS3 /// KIR2DS4 /// KIR3DL3 /// KIR3DL3 /// KIR3DS1 (11738374_at) / RFU C1QL1 (11718748_at) / Fold change /veh C1QL1 (11718748_at) / RFU TMPRSS4 (11747572_a_at) / Fold change /veh TMPRSS4 (11747572_a_at) / RFU HAMP (11756126_x_at) / Fold change /veh HAMP (11756126_x_at) / RFU RNFT2 (11725882_a_at) / Fold change /veh RNFT2 (11725882_a_at) / RFU NR4A2 (11747474_a_at) / Fold change /veh NR4A2 (11747474_a_at) / RFU ABCC12 (11746883_a_at) / Fold change /veh ABCC12 (11746883_a_at) / RFU TMEM136 (11760407_x_at) / Fold change /veh TMEM136 (11760407_x_at) / RFU CLDN22 /// WWC2 (11732394_at) / Fold change /veh CLDN22 /// WWC2 (11732394_at) / RFU HLA-DPB1 (11760878_x_at) / Fold change /veh HLA-DPB1 (11760878_x_at) / RFU SPINT1 (11716480_a_at) / Fold change /veh SPINT1 (11716480_a_at) / RFU GAP43 (11754022_s_at) / Fold change /veh GAP43 (11754022_s_at) / RFU A4GNT (11735810_at) / Fold change /veh A4GNT (11735810_at) / RFU PRB3 (11715151_x_at) / Fold change /veh PRB3 (11715151_x_at) / RFU TUBB4B (11761932_at) / Fold change /veh TUBB4B (11761932_at) / RFU CAPN14 (11732068_a_at) / Fold change /veh CAPN14 (11732068_a_at) / RFU TMCC2 (11721928_a_at) / Fold change /veh TMCC2 (11721928_a_at) / RFU IRGQ (11745062_a_at) / Fold change /veh IRGQ (11745062_a_at) / RFU FAM174B (11720279_a_at) / Fold change /veh FAM174B (11720279_a_at) / RFU TMPRSS4 (11748680_a_at) / Fold change /veh TMPRSS4 (11748680_a_at) / RFU FAM212B (11763350_a_at) / Fold change /veh FAM212B (11763350_a_at) / RFU PLEKHG5 (11743358_a_at) / Fold change /veh PLEKHG5 (11743358_a_at) / RFU ZSCAN30 (11745921_a_at) / Fold change /veh ZSCAN30 (11745921_a_at) / RFU CMKLR1 (11741424_a_at) / Fold change /veh CMKLR1 (11741424_a_at) / RFU LOC101060620 /// MAPK8IP1 (11723275_at) / Fold change /veh LOC101060620 /// MAPK8IP1 (11723275_at) / RFU SPTSSB (11747773_x_at) / Fold change /veh SPTSSB (11747773_x_at) / RFU PRSS12 (11739890_at) / Fold change /veh PRSS12 (11739890_at) / RFU BIN1 (11741810_x_at) / Fold change /veh BIN1 (11741810_x_at) / RFU WNT11 (11732464_a_at) / Fold change /veh WNT11 (11732464_a_at) / RFU C10orf10 (11716521_a_at) / Fold change /veh C10orf10 (11716521_a_at) / RFU C5orf56 (11738089_at) / Fold change /veh C5orf56 (11738089_at) / RFU CYB561 (11721691_x_at) / Fold change /veh CYB561 (11721691_x_at) / RFU ANKRD19P (11752326_a_at) / Fold change /veh ANKRD19P (11752326_a_at) / RFU OR2T12 /// OR2T33 /// OR2T8 (11738714_s_at) / Fold change /veh OR2T12 /// OR2T33 /// OR2T8 (11738714_s_at) / RFU VCAN (11748164_a_at) / Fold change /veh VCAN (11748164_a_at) / RFU JSRP1 (11732532_at) / Fold change /veh JSRP1 (11732532_at) / RFU KRTAP10-11 (11738290_x_at) / Fold change /veh KRTAP10-11 (11738290_x_at) / RFU MYO3A (11730013_a_at) / Fold change /veh MYO3A (11730013_a_at) / RFU EBF3 (11725865_a_at) / Fold change /veh EBF3 (11725865_a_at) / RFU CAMK2N1 (11719241_x_at) / Fold change /veh CAMK2N1 (11719241_x_at) / RFU C5orf56 (11738088_a_at) / Fold change /veh C5orf56 (11738088_a_at) / RFU OLFML3 (11715873_a_at) / Fold change /veh OLFML3 (11715873_a_at) / RFU LOC100653217 /// NTM (11731650_a_at) / Fold change /veh LOC100653217 /// NTM (11731650_a_at) / RFU MAPK11 (11762145_a_at) / Fold change /veh MAPK11 (11762145_a_at) / RFU FIZ1 (11724087_x_at) / Fold change /veh FIZ1 (11724087_x_at) / RFU OASL (11726364_x_at) / Fold change /veh OASL (11726364_x_at) / RFU SOX15 (11748057_x_at) / Fold change /veh SOX15 (11748057_x_at) / RFU CD79A (11719716_a_at) / Fold change /veh CD79A (11719716_a_at) / RFU HIST1H1D (11736915_at) / Fold change /veh HIST1H1D (11736915_at) / RFU CASKIN2 (11723855_a_at) / Fold change /veh CASKIN2 (11723855_a_at) / RFU LOC730098 (11760151_x_at) / Fold change /veh LOC730098 (11760151_x_at) / RFU OR4N2 (11742367_at) / Fold change /veh OR4N2 (11742367_at) / RFU PRRT2 (11749266_a_at) / Fold change /veh PRRT2 (11749266_a_at) / RFU SNX32 (11753110_a_at) / Fold change /veh SNX32 (11753110_a_at) / RFU CDHR5 (11726645_a_at) / Fold change /veh CDHR5 (11726645_a_at) / RFU RCAN1 (11760418_a_at) / Fold change /veh RCAN1 (11760418_a_at) / RFU FAM167A (11723789_a_at) / Fold change /veh FAM167A (11723789_a_at) / RFU FAM26E (11764081_at) / Fold change /veh FAM26E (11764081_at) / RFU ISYNA1 (11749810_s_at) / Fold change /veh ISYNA1 (11749810_s_at) / RFU ACY1 (11761880_at) / Fold change /veh ACY1 (11761880_at) / RFU 11764098_at / Fold change /veh 11764098_at / RFU SAMD14 (11745864_x_at) / Fold change /veh SAMD14 (11745864_x_at) / RFU NPB (11741838_a_at) / Fold change /veh NPB (11741838_a_at) / RFU TMPRSS6 (11731388_a_at) / Fold change /veh TMPRSS6 (11731388_a_at) / RFU KRTAP10-2 (11738614_at) / Fold change /veh KRTAP10-2 (11738614_at) / RFU ARHGAP8 /// PRR5-ARHGAP8 (11727945_x_at) / Fold change /veh ARHGAP8 /// PRR5-ARHGAP8 (11727945_x_at) / RFU KRTAP5-7 /// NADSYN1 (11734609_at) / Fold change /veh KRTAP5-7 /// NADSYN1 (11734609_at) / RFU RASL12 (11751679_a_at) / Fold change /veh RASL12 (11751679_a_at) / RFU CDKN2B (11736163_a_at) / Fold change /veh CDKN2B (11736163_a_at) / RFU PRF1 (11729649_at) / Fold change /veh PRF1 (11729649_at) / RFU, ZNF638 /// ZNF638-IT1 / Fold change vs veh, ZNF638 /// ZNF638-IT1 / RFU, PANK3 / Fold change vs veh, PANK3 / RFU, SH3YL1 / Fold change vs veh, SH3YL1 / RFU, ZEB2 / Fold change vs veh, ZEB2 / RFU, NRIP1 / Fold change vs veh, NRIP1 / RFU, PTTG1IP / Fold change vs veh, PTTG1IP / RFU, CAPN2 / Fold change vs veh, CAPN2 / RFU, MED14 / Fold change vs veh, MED14 / RFU, SNORA58 / Fold change vs veh, SNORA58 / RFU, C1orf63 / Fold change vs veh, C1orf63 / RFU, LRRFIP1 / Fold change vs veh, LRRFIP1 / RFU, NDUFAF7 / Fold change vs veh, NDUFAF7 / RFU, SLC12A2 / Fold change vs veh, SLC12A2 / RFU, IBTK / Fold change vs veh, IBTK / RFU, ESF1 / Fold change vs veh, ESF1 / Fold change vs veh, TMEM50B / RFU, TAOK1 / Fold change vs veh, TAOK1 / RFU, ACBD3 / Fold change vs veh, ACBD3 / RFU, TMA16 / Fold change vs veh, TMA16 / RFU, RWDD3 / Fold change vs veh, RWDD3 / RFU, BCAT1 / Fold change vs veh, BCAT1 / RFU, EDEM3 / Fold change vs veh, EDEM3 / RFU, TMEM33 / Fold change vs veh, TMEM33 / RFU, WDR75 / Fold change vs veh, WDR75 / RFU, AHCTF1 / Fold change vs veh, AHCTF1 / RFU, TFRC / Fold change vs veh, TFRC / RFU, ZDHHC17 / Fold change vs veh, ZDHHC17 / RFU, NOM1 / Fold change vs veh, NOM1 / RFU, ARL8B / Fold change vs veh, ARL8B / RFU, ZBTB11 / Fold change vs veh, ZBTB11 / RFU, TAMM41 / Fold change vs veh, TAMM41 / RFU, KIAA1704 /// LOC100996395 / Fold change vs veh, KIAA1704 /// LOC100996395 / RFU, ING1 / Fold change vs veh, ING1 / RFU, TRMT61B / Fold change vs veh, TRMT61B / RFU, FUBP3 / Fold change vs veh, FUBP3 / RFU, TP53 / Fold change vs veh, TP53 / RFU, TNKS2 / Fold change vs veh, TNKS2 / RFU, ZFP14 / Fold change vs veh, ZFP14 / RFU, ACTR2 / Fold change vs veh, ACTR2 / RFU, PPP3R1 / Fold change vs veh, PPP3R1 / RFU, PIK3R1 / Fold change vs veh, PIK3R1 / RFU, HNRNPA1 / Fold change vs veh, HNRNPA1 / RFU, RNF170 / Fold change vs veh, RNF170 / RFU, ZNF28 / Fold change vs veh, ZNF28 / RFU, RNGTT / Fold change vs veh, RNGTT / RFU, OGT / Fold change vs veh, OGT / RFU, BRD1 / Fold change vs veh, BRD1 / RFU, MARS / Fold change vs veh, MARS / RFU, ZNF655 / Fold change vs veh, ZNF655 / RFU, FAHD1 / Fold change vs veh, FAHD1 / RFU, BDP1 / Fold change vs veh, BDP1 / RFU, LRRCC1 / Fold change vs veh, LRRCC1 / RFU, ARID1A / Fold change vs veh, ARID1A / RFU, ZNF146 / Fold change vs veh, ZNF146 / RFU, ZNF330 / Fold change vs veh, ZNF330 / RFU, GPN3 / Fold change vs veh, GPN3 / RFU, C9orf123 / Fold change vs veh, C9orf123 / RFU, N4BP2L2 / Fold change vs veh, N4BP2L2 / RFU, ARFIP1 / Fold change vs veh, ARFIP1 / RFU, FAM179B / Fold change vs veh, FAM179B / RFU, BCL10 / Fold change vs veh, BCL10 / RFU, UHRF1BP1L / Fold change vs veh, UHRF1BP1L / RFU, BET1 / Fold change vs veh, BET1 / RFU, CNOT2 / Fold change vs veh, CNOT2 / RFU, ZNF268 / Fold change vs veh, ZNF268 / Fold change vs veh, ZNF507 / RFU, DGCR2 / Fold change vs veh, DGCR2 / RFU, WDSUB1 / Fold change vs veh, WDSUB1 / Fold change vs veh, HSP90B1 /// MIR3652 / RFU, ADSS / Fold change vs veh, ADSS / RFU, GK / Fold change vs veh, GK / RFU, ZNF148 / Fold change vs veh, ZNF148 / RFU, TAF9 / Fold change vs veh, TAF9 / RFU, SLC1A5 / Fold change vs veh, SLC1A5 / RFU, SLMO2 / Fold change vs veh, SLMO2 / RFU, ABCC4 / Fold change vs veh, ABCC4 / RFU, LOC101060439 /// RAP1B / Fold change vs veh, LOC101060439 /// RAP1B / RFU, RFX7 / Fold change vs veh, RFX7 / RFU, GTPBP10 / Fold change vs veh, GTPBP10 / RFU, CNEP1R1 / Fold change vs veh, CNEP1R1 / RFU, BIVM-ERCC5 /// ERCC5 / Fold change vs veh, BIVM-ERCC5 /// ERCC5 / RFU, ILF3 / Fold change vs veh, ILF3 / RFU 11762660_at / Fold change /veh 11762660_at / RFU VCAN (11757783_s_at) / Fold change /veh VCAN (11757783_s_at) / RFU DDX43 (11728927_at) / Fold change /veh DDX43 (11728927_at) / RFU KRT8 (11758188_x_at) / Fold change /veh KRT8 (11758188_x_at) / RFU NKD1 (11759106_at) / Fold change /veh NKD1 (11759106_at) / RFU SRD5A1 (11742802_a_at) / Fold change /veh SRD5A1 (11742802_a_at) / RFU TPSAB1 /// TPSB2 (11721975_s_at) / Fold change /veh TPSAB1 /// TPSB2 (11721975_s_at) / RFU GSTM3 (11746129_a_at) / Fold change /veh GSTM3 (11746129_a_at) / RFU IL23R (11737362_x_at) / Fold change /veh IL23R (11737362_x_at) / RFU TMEM51 (11727254_a_at) / Fold change /veh TMEM51 (11727254_a_at) / RFU PIWIL2 (11732686_x_at) / Fold change /veh PIWIL2 (11732686_x_at) / RFU ORM1 (11744905_x_at) / Fold change /veh ORM1 (11744905_x_at) / RFU CCDC152 (11743942_at) / Fold change /veh CCDC152 (11743942_at) / RFU ECM1 (11717891_a_at) / Fold change /veh ECM1 (11717891_a_at) / RFU IL23R (11748794_a_at) / Fold change /veh IL23R (11748794_a_at) / RFU TNFAIP8L3 (11732012_x_at) / Fold change /veh TNFAIP8L3 (11732012_x_at) / RFU MBOAT4 (11741988_at) / Fold change /veh MBOAT4 (11741988_at) / RFU 11764193_at / Fold change /veh 11764193_at / RFU TMEM53 (11763286_at) / Fold change /veh TMEM53 (11763286_at) / RFU MAGEB2 (11727129_at) / Fold change /veh MAGEB2 (11727129_at) / RFU TMEM200A (11744735_a_at) / Fold change /veh TMEM200A (11744735_a_at) / RFU CCDC152 (11751479_a_at) / Fold change /veh CCDC152 (11751479_a_at) / RFU FAM211A (11726209_a_at) / Fold change /veh FAM211A (11726209_a_at) / RFU RGS16 (11746705_a_at) / Fold change /veh RGS16 (11746705_a_at) / RFU VCAN (11755009_s_at) / Fold change /veh VCAN (11755009_s_at) / RFU RHOB (11743442_s_at) / Fold change /veh RHOB (11743442_s_at) / RFU RGS16 (11720943_a_at) / Fold change /veh RGS16 (11720943_a_at) / RFU RGS16 (11720944_at) / Fold change /veh RGS16 (11720944_at) / RFU, VPS4B / Fold change vs veh, VPS4B / RFU, CREB1 / Fold change vs veh, CREB1 / RFU, DNAJC13 / Fold change vs veh, DNAJC13 / RFU, GNAQ / Fold change vs veh, GNAQ / RFU, CDK5R1 / Fold change vs veh, CDK5R1 / RFU, ZRANB3 / Fold change vs veh, ZRANB3 / RFU, CUL4A / Fold change vs veh, CUL4A / RFU, CCNY / Fold change vs veh, CCNY / RFU, UFL1 / Fold change vs veh, UFL1 / RFU, COG3 / Fold change vs veh, COG3 / RFU, DIAPH2 / Fold change vs veh, DIAPH2 / RFU, SKA2 / Fold change vs veh, SKA2 / RFU, AFF3 / Fold change vs veh, AFF3 / RFU, LMF1 / Fold change vs veh, LMF1 / RFU, IPO11 / Fold change vs veh, IPO11 / RFU, DFFB / Fold change vs veh, DFFB / RFU, FOXP1 / Fold change vs veh, FOXP1 / RFU, CARD8 / Fold change vs veh, CARD8 / RFU, STRN3 / Fold change vs veh, STRN3 / RFU, ADK / Fold change vs veh, ADK / RFU, RASSF2 / Fold change vs veh, RASSF2 / RFU, WIPF1 / Fold change vs veh, WIPF1 / RFU, LARP1B / Fold change vs veh, LARP1B / RFU, RASA1 / Fold change vs veh, RASA1 / RFU, RB1 / Fold change vs veh, RB1 / RFU, PPFIA1 / Fold change vs veh, PPFIA1 / RFU, MAT2A / Fold change vs veh, MAT2A / RFU, CCT5 / Fold change vs veh, CCT5 / RFU, WDR92 / Fold change vs veh, WDR92 / RFU, CUX1 / Fold change vs veh, CUX1 / RFU, TTC7A / Fold change vs veh, TTC7A / RFU, TMEM135 / Fold change vs veh, TMEM135 / RFU, DEPTOR / Fold change vs veh, DEPTOR / RFU, CPM / Fold change vs veh, CPM / RFU, DNAJB6 / Fold change vs veh, DNAJB6 / RFU, CACNA2D3 / Fold change vs veh, CACNA2D3 / RFU, DTX4 / Fold change vs veh, DTX4 / RFU, TFCP2 / Fold change vs veh, TFCP2 / RFU, GMCL1 /// GMCL1P1 / Fold change vs veh, GMCL1 /// GMCL1P1 / RFU, AEBP2 / Fold change vs veh, AEBP2 / RFU, SNHG1 /// SNORD22 /// SNORD25 /// SNORD26 /// SNORD27 /// SNORD28 /// SNORD29 /// SNORD31 / Fold change vs veh, SNHG1 /// SNORD22 /// SNORD25 /// SNORD26 /// SNORD27 /// SNORD28 /// SNORD29 /// SNORD31 / Fold change (Aza/veh), C12orf56 (ProbeSet 11735607_a_at) / Fold change (ACY-1035/veh), C12orf56 (ProbeSet 11735607_a_at) / Fold change (Aza/veh), FGFR1OP (ProbeSet 11751329_s_at) / Fold change (ACY-1035/veh), FGFR1OP (ProbeSet 11751329_s_at) / Fold change (Aza/veh), VPS36 (ProbeSet 11739960_a_at) / Fold change (ACY-1035/veh), VPS36 (ProbeSet 11739960_a_at) / RFU SYPL1 (11715823_x_at) / Fold change /veh SYPL1 (11715823_x_at) / RFU IGFBP7 (11715501_s_at) / Fold change /veh IGFBP7 (11715501_s_at) / RFU REEP3 (11722064_at) / Fold change /veh REEP3 (11722064_at) / RFU IGLL1 (11728026_x_at) / Fold change /veh IGLL1 (11728026_x_at): dose or concentration left out as unconfirmed
Conditions: ProbeSet 11758397_s_at; LIST B

Nc1ccc(-c2cccs2)cc1NC(=O)c1ccc2c(c1)cc(C1CC1)n2CCN1CCOCC1 [ACY-1035]
Fold change vs veh, RNF170: 0.96
